# Laboratory results reported in article PMC12209172, “Poly(ADP-ribose)polymerase 2 is zinc-dependent enzyme and nucleosome reorganizer” (Cellular and Molecular Life Sciences: CMLS, 2025).
# “And” between values parts separate entries of the source, which are not always exact repeats. Identical values can stand only once. Like-named read-outs stand apart in the source and are kept apart here.
# B1: PARP2: Recombinant mouse full-length PARP2 obtained in the baculovirus expression system using Sf9 insect cells (protein)
# chain: MAPRRQRSGSGRRVLNEAKKVDNGNKATEDDSPPGKKMRTCQRKGPMAGGKDADRTKDNRDSVKTLLLKGKAPVDPECAAKLGKAHVYCEGDDVYDVMLNQTNLQFNNNKYYLIQLLEDDAQRNFSVWMRWGRVGKTGQHSLVTCSGDLNKAKEIFQKKFLDKTKNNWEDRENFEKVPGKYDMLQMDYAASTQDESKTKEEETLKPESQLDLRVQELLKLICNVQTMEEMMIEMKYDTKRAPLGKLTVAQIKAGYQSLKKIEDCIRAGQHGRALVEACNEFYTRIPHDFGLSIPPVIRTEKELSDKVKLLEALGDIEIALKLVKSERQGLEHPLDQHYRNLHCALRPLDHESNEFKVISQYLQSTHAPTHKDYTMTLLDVFEVEKEGEKEAFREDLPNRMLLWHGSRLSNWVGILSHGLRVAPPEAPITGYMFGKGIYFADMSSKSANYCFASRLKNTGLLLLSEVALGQCNELLEANPKAQGLLRGKHSTKGMGKMAPSPAHFITLNGSTVPLGPASDTGILNPEGYTLNYNEFIVYSPNQVRMRYLLKIQFNFLQLW
# What was measured:
# WGR domain of PARP2 [1] = target: T1, WGR domain of PARP2 (Homo sapiens, UniProt Q9UGN5); experiment: Tryptophan fluorescence spectroscopy of the WGR domain titrated with divalent cations (one site binding fit); conditions: for Kd: Trp fluorescence, one site binding fit, 10 mM HEPES pH 8.0, 150 mM NaCl, residual EDTA present, read-out: dissociation constant of the divalent cation-WGR domain complex; for effect of ions on intensity of tryptophan fluorescence of the WGR domain: WGR domain 5 µM
# T1 construct: WGR domain of PARP2 (residues 77–220) into pET-15b-TEV expression vector; 6xHis (pET-15b-TEV) (N, cleaved yes); made in house; host or cells: Escherichia coli Rosetta2 (DE3) pLysS
# Experimental: Fluorescence spectra of Trp residues were measured in the 300–450 nm spectral range at the 270 nm excitation wavelengths using the Cary Eclipse spectrofluorometer (Varian/Agilent, USA).
# Fluorescence of WGR domain was measured at 0.5 or 5 µM in a buffer containing 10 mM HEPES (pH 8.0), 150 mM NaCl and 0.73 or 7.3 µM EDTA, respectively. Solutions were complemented with ZnCl2 (0.2–308 µM) or MgCl2 (15–5000 µM), or CaCl2 (8–5000 µM) dissolved in a buffer containing 10 mM HEPES (pH 8.0), 150 mM NaCl. Intensity of the measured spectra was corrected for the concomitant dilution of the WGR domain. Integral intensities (Ifl.) of fluorescence spectra were averaged over three independent measurements (mean ± SEM) and used to plot the corresponding Ifl. vs. ion concentration graphs. Data were fitted with the one site binding equation:2 [drawing 2]
# Where C is the concentration of divalent cations, Kd is a dissociation constant of the complex, Im and Ifl0 are maximal and initial values of Ifl., respectively.
# [2] = target: T2, PARP2-nucleosome complexes (Mus musculus, UniProt O88554); experiment: spFRET microscopy in solution of nucleosomes and PARP2-nucleosome complexes; conditions: for effect of ions on the nucleosome structure: NP nucleosomes without PARP2, 5 mM ions; for effect of ions on the structure of nucleosomes in PARP2-nucleosome complexes: Zn2+ 0.3 mM, Ca2+ 5 mM or Mg2+ 5 mM
# T2 construct: Recombinant mouse full-length PARP2 was obtained in the baculovirus expression system; made in house; host or cells: PARP2: Sf9 insect cells (baculovirus), gift of Prof; O. Lavrik; nucleosomes assembled in house
# Experimental: In the study of nucleosome-PARP2 interactions, nucleosomes (1-2 nM) were incubated with PARP2 (12.5-200 nM) in buffer A (50 mM Tris-HCl pH 7.5; 40 mM NaCl; 0.5 mM β-mercaptoethanol (β-ME); 0.1% NP40) at 25 °C for 30 min. When indicated, buffer A was supplemented with 50 μM - 5 mM ZnCl2, 5 mM CaCl2 or 5 mM MgCl2. […] […] measurements in solution were performed as described previously. Each measured single nucleosome was characterized by FRET between Cy3 and Cy5 labels calculated as a proximity ratio (EPR):1 [drawing 1] Where I3 and I5 are fluorescence intensities of Cy3 and Cy5, respectively, and coefficients 0.19 and 0.81 provide correction for the spectral cross-talk between Cy3 and Cy5 detection channels. EPR is a FRET efficiency not corrected for quantum yields of labels and an instrumentation factor. Relative frequency distributions of nucleosomes by EPR values, i.e. EPR profiles, (2000-5000 nucleosomes per experiment; 3 independent experiments) were plotted and further analyzed as a superposition of several normal (Gaussian) distributions for nucleosomes or nucleosome-PARP2 complexes. Since nucleosomes tend to aggregate when PARP2 is added (especially at high concentrations), treatment of signals measured from nucleosomes and their complexes included mandatory rejection of signals from any aggregates that are clearly recognized due to their slow diffusion rate and/or abnormally high fluorescence intensity.
# WGR domain of PARP2 [3] = target: T1, WGR domain of PARP2; experiment: Circular dichroism spectroscopy of the WGR domain (BeStSel secondary structure analysis); parameters: content of a-helix in the WGR domain / content of b-sheet in the WGR domain / content of turn in the WGR domain / content of random coil in the WGR domain: unit not given here; conditions: for content of a-helix in the WGR domain / content of b-sheet in the WGR domain / content of random coil in the WGR domain / content of turn in the WGR domain: 5 mM ion, independent measurements
# Experimental: (§1) CD spectra of proteins were recorded within the 190-250 nm spectral range with 0.2 nm step using Jasco-810 spectrophotometer (Jasco, Japan) and the quartz […]® cuvette of 0.1 mm thickness (Hellma, Germany. Secondary structure analysis was performed using BeStSel webserver. To improve the reliability of the analysis, the content of canonical secondary structures of various types was predicted for 3-6 independent measurements, and the values were averaged. The statistical significance of the secondary structure difference was determined using the multiple t-test.
# PARP2 [4] = target: T3, PARP2 (Mus musculus, UniProt O88554); experiment: Circular dichroism spectroscopy of PARP2 (BeStSel secondary structure analysis); parameters: Recombinant mouse full-length PARP2 was obtained in the baculovirus expression system; made in house; host or cells: Sf9 insect cells (baculovirus); gift of Prof; O. Lavrik; conditions: 0.3 mM Zn2+, 0.7 mM Ca2+ or 0.7 mM Mg2+
# Experimental: as §1
# PARP2 [5] = target: T3, PARP2; experiment: Western blot analysis of NAD+-dependent PARylation by PARP2 in PARP2-nucleosome complexes; format: biochemical; parameters: Recombinant mouse full-length PARP2 was obtained in the baculovirus expression system; made in house; host or cells: PARP2: Sf9 insect cells (baculovirus), gift of Prof; O. Lavrik; nucleosomes assembled in house; conditions: for effect of EDTA on PARylation: EDTA 10 mM
# Experimental: Probes were subjected to electrophoresis in 4–12% bis-Tris gradient gel in the NuPAGE™ MES SDS Running Buffer at 130 V. […] The membrane was incubated for 60 min in the PBS-T solution supplemented with the 5% skimmed milk. Then the membrane was incubated with mouse monoclonal antibodies 10 H followed by incubation with the secondary anti-mouse antibodies conjugated with horseradish peroxidase (Bio-Rad, Hercules, CA, USA). The washing procedure was carried out after each step of incubation. Immunodetection was performed using the Super Signal West Pico Chemiluminescent Substrate (Thermo Fisher Scientific, Waltham, MA, USA) for 3 min. The Western blot experiments were performed in three independent repetitions.
# PARP2 (Mus musculus) [6] = experiment: EMSA; conditions: no divalent ions; EMSA: 2-3 nM nucleosomes, 5% PAGE in 0.2x TBE, 140 V, 4 C; divalent ions as given per row; binding buffer not in the material
# PARP2 (Mus musculus) [7] = target: PARP2 (Mus musculus) (UniProt O88554); conditions: cited from earlier work
# PARP2 (Mus musculus) [8] = target: PARP2 (Mus musculus) (UniProt O88554); conditions: cited from earlier work; remark: listed apart in the source
# [9] = target: Nucleosome assembled on a fluorescently labelled 187-bp DNA template (603 positioning sequence) with histones of chicken donor chromatin (chicken); experiment: native gel or EMSA + other: single particle fluorescence intensity analysis in the gel; nucleosomes NP with PARP2 (50 nM) in buffer A with 0.3 mM Zn2+; native PAGE
# NP nucleosomes = target: T4, NP nucleosomes (Mus musculus, UniProt O88554); experiment: EMSA of PARP2-nucleosome complexes (non-denaturing PAGE, FRET-in-gel); format: binding, chicken
# T4 construct: Recombinant mouse full-length PARP2 was obtained in the baculovirus expression system; made in house; host or cells: PARP2: Sf9 insect cells (baculovirus), gift of Prof; O. Lavrik; nucleosomes assembled in house
# Experimental: Sample preparation for EMSA was the same as for spFRET microscopy, although a slightly higher concentration of nucleosomes (2–3 nM) was used. The PARP2-nucleosome complexes were subjected to 5% polyacrylamide gel in 0.2×TBE buffer. Electrophoresis was performed under native conditions at 140 V, + 4 °C for ∼1.5 h. The gels were scanned using Amersham Typhoon RGB imager (Cytiva, Sweden). Fluorescence was excited in the gel at the 532 nm wavelength and recorded in the 570–610 nm (Cy3 signal) and 650–700 nm (FRET signal of Cy5) spectral regions. The resulting images were obtained in green (Cy3 signal) and red (FRET signal of Cy5) colors and merged.
# nucleosome = conditions: read-out: Kd of PARP2-nucleosome complex, cited from earlier work
# DNA = conditions: read-out: Kd of PARP2 complex with DNA, cited from earlier work
# T1 sequence (Q9UGN5 77-220): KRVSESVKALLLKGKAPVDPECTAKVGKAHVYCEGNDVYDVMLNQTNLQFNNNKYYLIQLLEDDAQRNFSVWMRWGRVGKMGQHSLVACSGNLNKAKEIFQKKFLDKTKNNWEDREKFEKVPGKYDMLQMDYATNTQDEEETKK
molecule,measurement,setting,value
"[Ca+2].[Cl-].[Cl-] [Ca2+, CaCl2]",Kd,WGR domain of PARP2 [1],29000 ± 14000 nM
same,effect of ions on intensity of tryptophan fluorescence of the WGR domain,WGR domain of PARP2 [1],considerably lower than the effect of Zn^2+ ions
same,effect of ions on the nucleosome structure,[2],minimally affect
same,effect of ions on the structure of nucleosomes in PARP2-nucleosome complexes,[2]; PARP2 50 nM,not changed
same,effect of ions on the structure of the WGR domain (CD),WGR domain of PARP2 [3],only minimal changes
same,content of a-helix in the WGR domain,WGR domain of PARP2 [3],14.9 and 10.9 and 11.1
same,content of b-sheet in the WGR domain,WGR domain of PARP2 [3],30.1 and 29.5 and 31.3
same,content of random coil in the WGR domain,WGR domain of PARP2 [3],43.7 and 47.2 and 46.3
same,content of turn in the WGR domain,WGR domain of PARP2 [3],11.4 and 12.5 and 11.3
same,effect of ions on the CD spectrum / conformation of PARP2,PARP2 [4],similar
"O=C(O)CN(CCN(CC(=O)O)CC(=O)O)CC(=O)O [EDTA, ethylenediaminetetraacetic acid]",effect of EDTA on PARP2-nucleosome complexes preformed in the presence of Zn2+,"[2]; EDTA 10 mM, Zn2+ 0.15 mM, PARP2 50 nM",does not reverse the changes in the nucleosome structure
same,effect of EDTA on PARylation,PARP2 [5]; Mg2+ 5 mM,fully reverses the effect of Mg^2+ ions
same,effect of EDTA on PARylation,PARP2 [5]; Zn2+ 0.3 mM,strongly enhances the efficiency of PARylation
same,effect of EDTA on PARylation,PARP2 [5]; absence of divalent ions,does not affect PARylation
"[Cl-].[Cl-].[Mg+2] [Mg2+, MgCl2]",Kd,WGR domain of PARP2 [1],180000 ± 80000 nM
same,effect of ions on intensity of tryptophan fluorescence of the WGR domain,WGR domain of PARP2 [1],considerably lower than the effect of Zn^2+ ions
same,effect of ions on the nucleosome structure,[2],minimally affect
same,effect of ions on the structure of nucleosomes in PARP2-nucleosome complexes,[2]; PARP2 50 nM,not changed
same,effect of ions on the structure of the WGR domain (CD),WGR domain of PARP2 [3],only minimal changes
same,content of a-helix in the WGR domain,WGR domain of PARP2 [3],13.8 and 13.1 and 13.6
same,content of b-sheet in the WGR domain,WGR domain of PARP2 [3],27.8 and 25.8 and 28.5
same,content of random coil in the WGR domain,WGR domain of PARP2 [3],46 and 48.5 and 46.1
same,content of turn in the WGR domain,WGR domain of PARP2 [3],12.3 and 12.6 and 11.7
same,effect of ions on the CD spectrum / conformation of PARP2,PARP2 [4],similar
same,effect of ions on efficiency of PARP2-mediated PARylation,"PARP2 [5]; Mg2+ 5 mM or Zn2+ 0.3 mM, PARP2 100 nM, nucleosomes 3 nM, NAD+ 0-5 µM",increase
"Np nucleosome (s603-42A, 187 bp DNA)",K half,PARP2 (Mus musculus) [6],40 nM
PARP2 (from UniProt O88554),Kd,PARP2 (Mus musculus) [7],152 nM
same,Kd,PARP2 (Mus musculus) [8],101 nM
Recombinant mouse full-length PARP2 (poly(ADP-ribose)polymerase 2) (from UniProt O88554 1-559) (enzyme),stoichiometry N (PARP2 per nucleosome),[9],1 and 2
B1,PARP2 concentration at which complexes with nucleosomes are formed,NP nucleosomes; absence of divalent ions,≥ 12.5 nM
same,EC50,"NP nucleosomes; absence of divalent ions, read-out: PARP2 concentration at ~50% decrease in the number of free nucleosomes (50% of nucleosomes in complexes)",40 ± 10 nM
same,PARP2 concentration above which aggregation prevents separation of complexes in the gel,NP nucleosomes; presence of 0.3 mM Zn2+,above 50 nM
same,Kd,nucleosome; ref 28,150 nM
same,Kd,nucleosome; ref 59,76 nM
same,Kd,DNA; 18 bp duplex oligonucleotides,11 nM
same,Kd,DNA; 147 bp DNA having a gap,58 nM
same,Kd,DNA; 147 bp intact DNA,840 nM
